Experiments:
FTO protein = FTO protein (Homo sapiens, UniProt Q9C0B1); experiment: FTO demethylation assay (enzymatic inhibition); format: biochemical; conditions: substrate 0.5 μM, enzyme 0.1 μM; ssDNA with N6-mA; HPLC-MS/MS; read-out: IC50 against FTO
Protocol: We measured the compound's inhibition activity in the demethylation reaction catalyzed by FTO. The assay was performed in 100 μl of reaction system containing 50 mM HEPES buffer (pH=7.0), 100 μM of a-KG, 100 μM of (NH4)2Fe(SO4)2, 1 mM of L-ascorbic acid, 50 ng/ml of BSA, 0.5 μM of ssDNA with N^6-mA (5′-ATTGTCA(m^6A)CAGCAGA-3′), and 0.1 μM of FTO protein. The reaction system was incubated at 37° C. for 2 h and stopped by heating at 95° C. for […] ssDNA was digested by nuclease P1 and alkaline phosphatase. The concentrations of N^6-mA and A were analyzed by HPLC-MS/MS. When concentration of substrate and enzyme are 0.5 μM and 0.1 μM, respectively, the measured IC50 value of entacapone against FTO is ˜9 μM (FIG. 2).

[1] = tested on: male wistar rats fed with high-fat diet; experiment: In vivo anti-obesity efficacy in rats fed high-fat diet; parameters: species or system rat; conditions: 85.6 mg/day by gavage
Protocol: Total of 23 male wistar rats (6 weeks) were fed with high-fat diet (45% fat, OpenSource Diets D12451), and entacapone (85.6 mg/day) was administered to 12 randomly selected rats by gavage. After 8 weeks, the mean body weight of drug treatment group was about 11% less than that of control group (*p-value<0.05) (FIG. 4).

Huh-7 cell line = experiment: Cellular triglyceride synthesis inhibition; format: cell-based; conditions: Homo sapiens, dyeing method
Text: FIG. 3. The dose-dependent inhibition activity of entacapone on triglyceride synthesis in Huh-7 cell line. The X-axis is the compound concentration. The Y-axis is “read-out” of the triglyceride concentration using dyeing method.

[2] = tested on: Ldlr−/− mice fed western style diet; experiment: Atherosclerosis model: Ldlr-deficient mice; format: in vivo, mouse; conditions: 300 mg/kg orally blended with diet, after 8 weeks; Oil red O staining; p-value=0.08
Protocol: Atherosclerosis Model: Ldlr-Deficient Mice. We measured entacapone's anti-atherosclerosis efficacy using Ldlr^−/− mice fed western style diet (20% fat, 0.15% cholesterol), entacapone (300 mg/kg) was orally administered by blending with diet. After 8 weeks, the mean lesion area in aortic sinuses of drug treatment group was 28% less than that of control group (p-value=0.08) (FIG. 8). Therefore, entacapone reduces atherosclerosis symptom, comparing with the control.

[3] = tested on: obese male C57BL/6 mice fed with high-fat diet; experiment: In vivo anti-obesity efficacy in obese mice; parameters: species or system mouse; conditions: 300 mg/kg orally blended with diet, after 13 weeks; p<0.05
Protocol: Male C57BL/6 mice were fed with high-fat diet (45% fat, OpenSource Diets D12451) for 8 weeks. Then obese mice with body weight 20% larger than that of mice fed with normal diet (20 mice) were selected for experiments. Entacapone (300 mg/kg) was orally administered to 10 randomly selected obese mice by blending with diet. After 13 weeks, the mean body weight gain of drug treatment group was about 11% less than that of control group (*p-value<0.05) (FIG. 9).

FTO protein, sequence (Q9C0B1 whole entry): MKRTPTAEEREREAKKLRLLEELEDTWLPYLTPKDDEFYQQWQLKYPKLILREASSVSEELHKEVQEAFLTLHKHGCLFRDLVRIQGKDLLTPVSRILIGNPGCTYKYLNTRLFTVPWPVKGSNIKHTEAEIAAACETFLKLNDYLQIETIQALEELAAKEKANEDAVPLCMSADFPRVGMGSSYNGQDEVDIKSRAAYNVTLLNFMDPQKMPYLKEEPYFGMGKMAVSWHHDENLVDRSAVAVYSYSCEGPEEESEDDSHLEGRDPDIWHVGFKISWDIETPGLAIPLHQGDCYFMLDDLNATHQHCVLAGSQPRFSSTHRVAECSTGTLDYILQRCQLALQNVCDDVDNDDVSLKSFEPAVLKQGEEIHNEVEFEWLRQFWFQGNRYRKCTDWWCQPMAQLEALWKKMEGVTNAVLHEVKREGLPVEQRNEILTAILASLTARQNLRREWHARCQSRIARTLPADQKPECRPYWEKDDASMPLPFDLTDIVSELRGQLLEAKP

- IC50 (FTO protein): ~9 µM
- Difference in serum Creatine kinase (drug treatment vs control group) ([1]; rat serum, p-value 0.2311): −17.6%
- Difference in serum Glutamic-pyruvic transaminase (drug treatment vs control group) ([1]; rat serum, p-value 0.4962): −5.5%
- Difference in serum Bilirubin (drug treatment vs control group) ([1]; rat serum, p-value 0.5814): −10.1%
- Difference in serum Albumin ratio (drug treatment vs control group) ([1]; rat serum, p-value 0.9473): −0.063%
- IC50 (Huh-7 cell line): ~15 µM
Compound: CCN(CC)C(=O)/C(C#N)=C/c1cc(O)c(O)c([N+](=O)[O-])c1 [entacapone, (2E)-2-cyano-3-(3,4-dihydroxy-5-nitrophenyl)-N,N-diethylprop-2-enamide]
- mean body weight less than that of control group ([1]; after 8 weeks, high-fat diet, p<0.05): about 11%
- decrease of LDL-c in serum compared to control group ([1]; after 8 weeks, p<0.005): about 40%
- adipose tissue change vs control (H&E staining) ([1]; high-fat diet): reduced size of adipose cells
- body-weight-normalized food intake vs control group ([1]; high-fat diet): no difference
- hepatic tissue change vs control (H&E staining) ([1]; high-fat diet): reduced level of liver steatosis
- Difference in serum LDL-cholesterol (drug treatment vs control group) ([1]; rat serum, p-value 0.0005): −41.2%
- Difference in serum Cholesterol (drug treatment vs control group) ([1]; rat serum, p-value 0.6455): −3.3%
- Difference in serum Triglyceride (drug treatment vs control group) ([1]; rat serum, p-value 0.8023): −3.8%
- Difference in serum HDL-cholesterol (drug treatment vs control group) ([1]; rat serum, p-value 0.9972): −0.026%
- mean lesion area in aortic sinuses less than that of control group [2]: 28%
- mean body weight gain less than that of control group [3]: about 11%

From US10004715B2, “Entacapone for prevention and treatment of atherosclerosis” (National Institute of Biological Sciences, Beijing, priority 2012, dated 2018)
